Data from article PMC8931335 (Proceedings of the National Academy of Sciences of the …, 2022).

Molecular target: T1, MOR42-3 (Mus musculus, UniProt E9PX47)
T1 sequence (E9PX47 1-334): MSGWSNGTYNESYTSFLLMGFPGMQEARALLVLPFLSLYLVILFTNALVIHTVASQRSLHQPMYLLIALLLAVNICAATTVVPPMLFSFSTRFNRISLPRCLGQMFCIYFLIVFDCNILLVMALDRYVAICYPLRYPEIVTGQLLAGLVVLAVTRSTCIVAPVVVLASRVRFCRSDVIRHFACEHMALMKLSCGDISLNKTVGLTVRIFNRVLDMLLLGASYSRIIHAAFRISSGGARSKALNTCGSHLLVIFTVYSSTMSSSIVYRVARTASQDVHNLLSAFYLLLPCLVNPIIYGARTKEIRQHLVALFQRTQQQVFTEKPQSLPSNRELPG
Assay: CRE luciferase reporter assay in Hana3A cells
Format: cell-based

EC50: 29.4 ± 12.8 µM
Structure (SMILES): O=C(O)CCCCCCCC(=O)O [NA]
